3 compounds from patent US12319655B2, “RAF kinase inhibitors and methods of use thereof” (Deciphera Pharmaceuticals, LLC, priority 2021, dated 2025) can be followed below.

In assay [1] the test system is WM3928 cells. Briefly: WM3928 Cell Proliferation Assay (2). Format: cell-based. The procedure:
WM3928 Cell Proliferation Assay (2)
WM3928 cells (#WM3928-01-0001) are obtained from Rockland Immunochemicals Inc (Gilbertsville, PA). Briefly, cells were grown in MCDB 153 medium (Sigma, #M7403, St. Louis, MO) supplemented with 20% Leibovitz's L-15 (ThermoFisher #11415-064, Waltham, MA), 2% heat inactivated fetal bovine serum (ThermoFisher, #A3840001, Waltham, MA), 5 μg/mL Insulin (Bovine Pancreas) (Sigma, #10516, St. Louis, MO), 1.68 mM Calcium Chloride (Sigma, #C-34006, St. Louis, MO) and 1% Penicillin/Streptomycin/L-Glutamine (ThermoFisher #10378016, Waltham, MA) at 37° C., 5% CO2, and 95% humidity. Cells are expanded until reaching 70-95% confluency at which point they are sub-cultured or harvested for assay use. Using the Beckman Coulter Echo 650, a serial dilution of test compound is dispensed into a 384-well black clear bottom plate in triplicate. Seven hundred fifty cells are added per well in 50 μL complete growth medium in the 384-well plate. Plates are incubated for 67-72 hours at 37° C., 5% CO2, and 95% humidity. At the end of the incubation, 10 μL of a 440 μM solution of resazurin (Sigma, #199303, St. Louis, MO) in PBS is added to each well of the plate and plates are incubated for an additional 3-6 hours at 37° C., 5% CO2, and 95% humidity. Plates are read on a Synergy2 or equivalent reader (Biotek, Winooski VT) using an excitation of 540 nm and an emission of 600 nm. Data is analyzed using Prism software (GraphPad, San Diego, CA) to calculate IC50 values.

The target in assay [2] is B-Raf kinase (SEQ. ID NO: 2) (Homo sapiens (Human), UniProt P15056). The assay can be described thus: Biochemical Assay for B-Raf (2). As to conditions: Table J, biochemical assay (2); read-out: BRAF (2). As to the method:
Biochemical Assay for B-Raf (2)
Activity of B-Raf kinase (SEQ. ID NO: 2) was determined spectroscopically using a coupled pyruvate kinase/lactate dehydrogenase assay that continuously monitors the ATP hydrolysis-dependent oxidation of NADH (e.g., Schindler et al., Science, 2000, 289, 1938-1942). Assays were conducted in 384-well plates (25 μL final volume) using 2 nM B-Raf (Sigma), 1.5 units pyruvate kinase, 2.1 units lactate dehydrogenase, 1 mM phosphoenol pyruvate, 0.7 mM NADH, 50 nM MEK (SignalChem), and 1 mM ATP in assay buffer (100 mM Tris, pH 7.5, 15 mM MgCl2, 0.5 mM DTT, 0.1% octyl-glucoside, 0.002% (w/v) BSA, and 0.002% Triton X-100). Inhibition of B-Raf was measured by adding serial diluted test compound (final assay concentration of 1% DMSO). A decrease in absorption at 340 nm was monitored hourly for 4 h at 30° C. on a multi-mode microplate reader (BioTek). The reaction rate was calculated using the 2 to 3 h time frame. The reaction rate at each concentration of compound was converted to percent inhibition using controls (i.e., reaction with no test compound and reaction with a known inhibitor) and IC50 values were calculated by fitting a four-parameter sigmoidal curve to the data using Prism (GraphPad software).

The structures appear in SMILES notation. Where only a bound is given, the exact number is not on record here.

Sequence of B-Raf kinase (SEQ. ID NO: 2) (P15056 416-766): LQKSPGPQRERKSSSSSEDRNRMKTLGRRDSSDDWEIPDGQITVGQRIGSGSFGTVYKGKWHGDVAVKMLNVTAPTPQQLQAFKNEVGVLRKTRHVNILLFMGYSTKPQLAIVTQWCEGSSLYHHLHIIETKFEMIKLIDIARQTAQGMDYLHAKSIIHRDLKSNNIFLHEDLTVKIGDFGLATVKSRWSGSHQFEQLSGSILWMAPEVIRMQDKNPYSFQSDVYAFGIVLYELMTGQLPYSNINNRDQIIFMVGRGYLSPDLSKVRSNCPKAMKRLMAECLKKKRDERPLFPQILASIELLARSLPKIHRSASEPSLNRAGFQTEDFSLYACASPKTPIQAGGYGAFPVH

For `CNC(=O)c1cc(-c2cc(-c3cc(NC(=O)c4ccnc(C(C)(C)F)c4)c(F)cc3F)ccn2)ccn1` [Example 482], the IC50 in assay [1] and in assay [2] was 100 to 500 nM in each case.
For the compound `Cc1cc(-c2cc(NC(=O)c3ccnc(C(C)(C)F)c3)ccc2C)cc(-c2ccnc(C#N)c2)n1` [Example 483], the IC50 is 500 to 1000 nM in assay [1] and 100 to 500 nM in assay [2].
The matching figures for `Cc1cc(-c2cc(NC(=O)c3ccnc(C(C)(C)F)c3)ccc2C)cc(-c2ccnc(C(N)=O)c2)n1` [Example 484]: not above 100 nM and not above 100 nM.
